From ChEMBL document CHEMBL1126580, “Enantiospecific syntheses of alpha-(fluoromethyl)tryptophan analogues: interactions with tryptophan hydroxylase and aromatic L-amino acid decarboxylase” (J Med Chem, 1993)

Biological target: T1, Aromatic-L-amino-acid decarboxylase (Mus musculus, UniProt O88533)
T1 sequence (O88533 whole entry): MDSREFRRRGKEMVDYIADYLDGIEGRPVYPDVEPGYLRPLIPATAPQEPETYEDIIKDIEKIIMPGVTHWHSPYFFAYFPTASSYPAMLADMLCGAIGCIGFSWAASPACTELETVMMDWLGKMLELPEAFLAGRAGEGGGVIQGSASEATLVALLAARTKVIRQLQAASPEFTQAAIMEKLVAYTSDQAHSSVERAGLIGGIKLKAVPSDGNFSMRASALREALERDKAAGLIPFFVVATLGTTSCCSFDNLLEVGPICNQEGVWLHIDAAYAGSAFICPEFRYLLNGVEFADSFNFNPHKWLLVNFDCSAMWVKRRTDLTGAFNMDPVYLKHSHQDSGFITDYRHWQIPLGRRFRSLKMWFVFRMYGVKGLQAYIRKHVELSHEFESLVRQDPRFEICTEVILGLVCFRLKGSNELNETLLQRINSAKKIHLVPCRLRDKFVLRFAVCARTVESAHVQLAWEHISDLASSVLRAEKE
Experiment: Dissociation constant (KI) was evaluated as inhibitor of murine liver aromatic L-amino acid decarboxylase (AADC)

Ki: 24.3 µM
SMILES: N[C@@](CF)(Cc1c[nH]c2ccc(O)cc12)C(=O)O
